Assay results published in patent US6878731B2, “Imidazole alkaloids from Lepidium meyenii and methods of usage” (Pure World Botanicals, Inc., priority 2002, dated 2005).

How the values were obtained:
[1] = system: MDA231 (human breast carcinoma); details: MDA231 cell line
[2] = system: HT-29 (human colon adenocarcinoma); details: HT-29 cell line
[3] = system: PC-3 (human prostate adenocarcinoma); details: PC-3 cell line
[4] = system: A-549 (human lung carcinoma); details: A-549 cell line
[5] = system: PACA2 (human pancreatic adenocarcinoma); details: PACA2 cell line
[6] = system: FDIGROV (human ovarian carcinoma); details: FDIGROV cell line
[7] = system: A4982LM (human kidney carcinoma); details: A4982LM cell line
[8] = system: UMUC3 (human bladder carcinoma); details: UMUC3 cell line

SMILES | Cytotoxic activity ED50, MDA231 [1] [µg/mL] | Cytotoxic activity ED50, HT-29 [2] [µg/mL] | Cytotoxic activity in words, HT-29 [2] | Cytotoxic activity ED50, PC-3 [3] [µg/mL] | Cytotoxic activity in words, PC-3 [3] | Cytotoxic activity ED50, A-549 [4] [µg/mL] | Cytotoxic activity in words, A-549 [4] | Cytotoxic activity ED50, PACA2 [5] [µg/mL] | Cytotoxic activity ED50, FDIGROV [6] [µg/mL] | ED50, FDIGROV [6] [µg/mL] | Cytotoxic activity ED50, A4982LM [7] [µg/mL] | Cytotoxic activity in words, A4982LM [7] | Cytotoxic activity ED50, UMUC3 [8] [µg/mL]
Cc1c(C)[n+](Cc2ccccc2)cn1Cc1ccccc1.[Cl-] [Compound 1, 1,3-bis(phenylmethyl)-4,5-dimethyl-1H-imidazlium chloride] | >10 | >10 | inactive | >10 | inactive | >10 | inactive | >10 | 7.39 | 7390 | >10 | inactive | >10
Cc1c(C)[n+](Cc2ccccc2)c(C)n1Cc1ccccc1.[Cl-] [Compound 2, 1,3-bis(phenylmethyl)-2,4,5-trimethyl-1H-imidazlium chloride] | 1.66 | >10 | inactive | >10 | inactive | >10 | inactive | 1.38 | 5.26 | 5260 | >10 | inactive | 6.47
